The target in one series is T1, GLP-1 receptor (GLP-1R) (Rattus norvegicus, UniProt P32301).
T1 construct: endogenous in cells; host or cells: rat INS-1 cells
T1 sequence (P32301 22-463): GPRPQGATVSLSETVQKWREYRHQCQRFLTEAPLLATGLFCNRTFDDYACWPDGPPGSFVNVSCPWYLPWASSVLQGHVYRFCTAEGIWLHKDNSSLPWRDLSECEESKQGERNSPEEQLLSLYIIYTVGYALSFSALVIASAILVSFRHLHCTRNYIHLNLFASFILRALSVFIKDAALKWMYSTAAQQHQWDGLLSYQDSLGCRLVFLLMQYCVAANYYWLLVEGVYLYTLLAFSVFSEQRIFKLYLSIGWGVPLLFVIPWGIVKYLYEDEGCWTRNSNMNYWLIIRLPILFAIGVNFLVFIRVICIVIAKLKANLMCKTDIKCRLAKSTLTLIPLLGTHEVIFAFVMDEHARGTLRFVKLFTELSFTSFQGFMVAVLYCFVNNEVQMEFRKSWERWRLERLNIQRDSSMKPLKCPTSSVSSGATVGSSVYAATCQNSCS
Description: GLP-1 receptor binding assay (cellular ELISA). How it is done:
Cells were rinsed with PBS and fixed with 4% paraformaldehyde (Thermo Scientific) for 10 min at room temperature and quenched for 5 min with 2% glycine in PBS, pH 7.5. […] After a 2 h incubation at 37 °C in a final volume of 100 μl, the excess peptides were washed, and the cells were blocked with 5% BSA (BD Biosciences). […] Colorimetric changes were analyzed by reading the absorbance at 450 nm in a SpectraMax M5 (Molecular Device) microplate reader. The peptide concentration was plotted against UV absorbance, and the Kd was calculated using Origin 7.0 software.
(In general: ELISA stands for enzyme-linked immunosorbent assay.)

For the next series, the target named is T2, DPP IV enzyme (Homo sapiens, UniProt P27487).
T2 construct: purchased Sigma-Aldrich
T2 sequence (P27487 whole entry, species assumed): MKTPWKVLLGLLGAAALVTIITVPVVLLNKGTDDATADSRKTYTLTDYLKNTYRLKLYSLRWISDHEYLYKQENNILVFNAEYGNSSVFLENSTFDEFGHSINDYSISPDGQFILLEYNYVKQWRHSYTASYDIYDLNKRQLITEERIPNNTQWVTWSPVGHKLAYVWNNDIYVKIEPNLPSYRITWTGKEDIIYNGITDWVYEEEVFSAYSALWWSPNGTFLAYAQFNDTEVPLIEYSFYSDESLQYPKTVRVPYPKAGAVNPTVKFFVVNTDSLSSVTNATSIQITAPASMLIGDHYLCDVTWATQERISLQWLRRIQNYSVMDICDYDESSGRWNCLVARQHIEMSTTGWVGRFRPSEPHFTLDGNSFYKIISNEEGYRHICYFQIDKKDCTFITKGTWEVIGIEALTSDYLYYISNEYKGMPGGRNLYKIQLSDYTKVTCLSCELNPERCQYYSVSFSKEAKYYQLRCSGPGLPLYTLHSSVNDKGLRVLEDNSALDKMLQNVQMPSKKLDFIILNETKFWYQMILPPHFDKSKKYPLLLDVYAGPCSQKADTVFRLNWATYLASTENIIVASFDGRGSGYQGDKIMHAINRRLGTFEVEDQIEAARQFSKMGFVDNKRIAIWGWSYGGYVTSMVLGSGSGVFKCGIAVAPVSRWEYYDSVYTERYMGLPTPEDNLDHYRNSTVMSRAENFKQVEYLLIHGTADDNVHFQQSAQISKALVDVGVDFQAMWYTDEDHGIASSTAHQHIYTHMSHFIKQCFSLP
Description: Stability against DPP IV proteolysis with or without HSA. Type of series: in vitro ADME. Conditions: DPP IV 0.1 mg/ml, peptide 1 mg/ml, 37 °C, GLP-1 (7–37) ELISA; for degradation in DPP IV proteolysis compared with wild-type GLP-1, within 24 h: 25 mM potassium phosphate, 25 mM KCl, 5 mM MgCl2, pH 7.0, 2% HSA; for detectability of full-length peptide at 24 h: pH 7.0, in the presence of human serum albumin (2%).

Each structure is given as a SMILES string.

Description for DPP IV enzyme: DPP IV enzyme (0.1 mg/ml) was dissolved in 25 mM potassium phosphate buffer containing 25 mM potassium chloride and 5 mM magnesium chloride, pH 7.0.

On GLP-1 receptor (GLP-1R), `CCCCCCCCCCCCCCCC(=O)NCCCC[C@H](NC(=O)[C@@H](NC(=O)[C@H](CC(C)C)NC(=O)[C@H](Cc1c[nH]c2ccccc12)NC(=O)[C@H](C)NC(=O)[C@@H](NC(=O)[C@H](Cc1ccccc1)NC(=O)[C@H](CCC(=O)O)NC(=O)[C@H](CCCCN)NC(=O)[C@H](C)NC(=O)[C@H](C)NC(=O)[C@H](CCC(N)=O)NC(=O)CNC(=O)[C@H](CCC(=O)O)NC(=O)[C@H](CC(C)C)NC(=O)[C@H](Cc1ccc(O)cc1)NC(=O)[C@H](CO)NC(=O)[C@H](CO)NC(=O)[C@@H](NC(=O)[C@H](CC(=O)O)NC(=O)[C@H](CO)NC(=O)[C@@H](NC(=O)[C@H](Cc1ccccc1)NC(=O)[C@@H](NC(=O)CNC(=O)[C@H](CCC(=O)O)NC(=O)[C@H](C)NC(=O)[C@@H](N)Cc1c[nH]cn1)[C@@H](C)O)[C@@H](C)O)C(C)C)[C@@H](C)CC)C(C)C)C(=O)NCC(=O)N[C@@H](CCCNC(=N)N)C(=O)NCC(=O)O` [compound 6] displayed a Kd of 13.7 ± 0.88 nM. On DPP IV enzyme, the “degradation in DPP IV proteolysis compared with wild-type GLP-1, within 24 h” value was “slower degradation rates” and the “detectability of full-length peptide at 24 h” value is “still detectable at 24 h”.
Regarding `CCCCCCCCCCCCNC(=O)C[C@H](NC(=O)[C@H](CO)NC(=O)[C@@H](NC(=O)[C@H](Cc1ccccc1)NC(=O)[C@@H](NC(=O)CNC(=O)[C@H](CCC(=O)O)NC(=O)[C@H](C)NC(=O)[C@@H](N)Cc1c[nH]cn1)[C@@H](C)O)[C@@H](C)O)C(=O)N[C@H](C(=O)N[C@@H](CO)C(=O)N[C@@H](CO)C(=O)N[C@@H](Cc1ccc(O)cc1)C(=O)N[C@@H](CC(C)C)C(=O)N[C@@H](CCC(=O)O)C(=O)NCC(=O)N[C@@H](CCC(N)=O)C(=O)N[C@@H](C)C(=O)N[C@@H](C)C(=O)N[C@@H](CCCCN)C(=O)N[C@@H](CCC(=O)O)C(=O)N[C@@H](Cc1ccccc1)C(=O)N[C@H](C(=O)N[C@@H](C)C(=O)N[C@@H](Cc1c[nH]c2ccccc12)C(=O)N[C@@H](CC(C)C)C(=O)N[C@H](C(=O)N[C@@H](CCCCN)C(=O)NCC(=O)N[C@@H](CCCNC(=N)N)C(=O)NCC(=O)O)C(C)C)[C@@H](C)CC)C(C)C` [compound 11], on GLP-1 receptor (GLP-1R), the Kd came to 97.4 ± 2.11 nM.
On the same count and under the same terms, with `CCCCCCCCCCCCCCCCNC(=O)C[C@H](NC(=O)[C@H](CO)NC(=O)[C@@H](NC(=O)[C@H](Cc1ccccc1)NC(=O)[C@@H](NC(=O)CNC(=O)[C@H](CCC(=O)O)NC(=O)[C@H](C)NC(=O)[C@@H](N)Cc1c[nH]cn1)[C@@H](C)O)[C@@H](C)O)C(=O)N[C@H](C(=O)N[C@@H](CO)C(=O)N[C@@H](CO)C(=O)N[C@@H](Cc1ccc(O)cc1)C(=O)N[C@@H](CC(C)C)C(=O)N[C@@H](CCC(=O)O)C(=O)NCC(=O)N[C@@H](CCC(N)=O)C(=O)N[C@@H](C)C(=O)N[C@@H](C)C(=O)N[C@@H](CCCCN)C(=O)N[C@@H](CCC(=O)O)C(=O)N[C@@H](Cc1ccccc1)C(=O)N[C@H](C(=O)N[C@@H](C)C(=O)N[C@@H](Cc1c[nH]c2ccccc12)C(=O)N[C@@H](CC(C)C)C(=O)N[C@H](C(=O)N[C@@H](CCCCN)C(=O)NCC(=O)N[C@@H](CCCNC(=N)N)C(=O)NCC(=O)O)C(C)C)[C@@H](C)CC)C(C)C` [compound 12] the figure was 84.6 ± 4.36 nM.
Same read-out and setting: with `CCCCCCCCNC(=O)CC[C@H](NC(=O)[C@H](CC(C)C)NC(=O)[C@H](Cc1ccc(O)cc1)NC(=O)[C@H](CO)NC(=O)[C@H](CO)NC(=O)[C@@H](NC(=O)[C@H](CC(=O)O)NC(=O)[C@H](CO)NC(=O)[C@@H](NC(=O)[C@H](Cc1ccccc1)NC(=O)[C@@H](NC(=O)CNC(=O)[C@H](CCC(=O)O)NC(=O)[C@H](C)NC(=O)[C@@H](N)Cc1c[nH]cn1)[C@@H](C)O)[C@@H](C)O)C(C)C)C(=O)NCC(=O)N[C@@H](CCC(N)=O)C(=O)N[C@@H](C)C(=O)N[C@@H](C)C(=O)N[C@@H](CCCCN)C(=O)N[C@@H](CCC(=O)O)C(=O)N[C@@H](Cc1ccccc1)C(=O)N[C@H](C(=O)N[C@@H](C)C(=O)N[C@@H](Cc1c[nH]c2ccccc12)C(=O)N[C@@H](CC(C)C)C(=O)N[C@H](C(=O)N[C@@H](CCCCN)C(=O)NCC(=O)N[C@@H](CCCNC(=N)N)C(=O)NCC(=O)O)C(C)C)[C@@H](C)CC` [compound 13] the figure was 18.7 ± 1.36 nM.
`CCCCCCCCCCCCNC(=O)CC[C@H](NC(=O)[C@H](CC(C)C)NC(=O)[C@H](Cc1ccc(O)cc1)NC(=O)[C@H](CO)NC(=O)[C@H](CO)NC(=O)[C@@H](NC(=O)[C@H](CC(=O)O)NC(=O)[C@H](CO)NC(=O)[C@@H](NC(=O)[C@H](Cc1ccccc1)NC(=O)[C@@H](NC(=O)CNC(=O)[C@H](CCC(=O)O)NC(=O)[C@H](C)NC(=O)[C@@H](N)Cc1c[nH]cn1)[C@@H](C)O)[C@@H](C)O)C(C)C)C(=O)NCC(=O)N[C@@H](CCC(N)=O)C(=O)N[C@@H](C)C(=O)N[C@@H](C)C(=O)N[C@@H](CCCCN)C(=O)N[C@@H](CCC(=O)O)C(=O)N[C@@H](Cc1ccccc1)C(=O)N[C@H](C(=O)N[C@@H](C)C(=O)N[C@@H](Cc1c[nH]c2ccccc12)C(=O)N[C@@H](CC(C)C)C(=O)N[C@H](C(=O)N[C@@H](CCCCN)C(=O)NCC(=O)N[C@@H](CCCNC(=N)N)C(=O)NCC(=O)O)C(C)C)[C@@H](C)CC` [compound 14]: the Kd at GLP-1 receptor (GLP-1R) is 18.4 ± 2.36 nM.
On to `CCCCCCCCCCCCCCCCNC(=O)CC[C@H](NC(=O)[C@H](CC(C)C)NC(=O)[C@H](Cc1ccc(O)cc1)NC(=O)[C@H](CO)NC(=O)[C@H](CO)NC(=O)[C@@H](NC(=O)[C@H](CC(=O)O)NC(=O)[C@H](CO)NC(=O)[C@@H](NC(=O)[C@H](Cc1ccccc1)NC(=O)[C@@H](NC(=O)CNC(=O)[C@H](CCC(=O)O)NC(=O)[C@H](C)NC(=O)[C@@H](N)Cc1c[nH]cn1)[C@@H](C)O)[C@@H](C)O)C(C)C)C(=O)NCC(=O)N[C@@H](CCC(N)=O)C(=O)N[C@@H](C)C(=O)N[C@@H](C)C(=O)N[C@@H](CCCCN)C(=O)N[C@@H](CCC(=O)O)C(=O)N[C@@H](Cc1ccccc1)C(=O)N[C@H](C(=O)N[C@@H](C)C(=O)N[C@@H](Cc1c[nH]c2ccccc12)C(=O)N[C@@H](CC(C)C)C(=O)N[C@H](C(=O)N[C@@H](CCCCN)C(=O)NCC(=O)N[C@@H](CCCNC(=N)N)C(=O)NCC(=O)O)C(C)C)[C@@H](C)CC` [compound 15], for which, on DPP IV enzyme, the “degradation in DPP IV proteolysis compared with wild-type GLP-1, within 24 h” value is “slower degradation rates” and the “detectability of full-length peptide at 24 h” value was “still detectable at 24 h”.
In turn, `CCCCCCCCNC(=O)CC[C@H](NC(=O)[C@H](CCCCN)NC(=O)[C@H](C)NC(=O)[C@H](C)NC(=O)[C@H](CCC(N)=O)NC(=O)CNC(=O)[C@H](CCC(=O)O)NC(=O)[C@H](CC(C)C)NC(=O)[C@H](Cc1ccc(O)cc1)NC(=O)[C@H](CO)NC(=O)[C@H](CO)NC(=O)[C@@H](NC(=O)[C@H](CC(=O)O)NC(=O)[C@H](CO)NC(=O)[C@@H](NC(=O)[C@H](Cc1ccccc1)NC(=O)[C@@H](NC(=O)CNC(=O)[C@H](CCC(=O)O)NC(=O)[C@H](C)NC(=O)[C@@H](N)Cc1c[nH]cn1)[C@@H](C)O)[C@@H](C)O)C(C)C)C(=O)N[C@@H](Cc1ccccc1)C(=O)N[C@H](C(=O)N[C@@H](C)C(=O)N[C@@H](Cc1c[nH]c2ccccc12)C(=O)N[C@@H](CC(C)C)C(=O)N[C@H](C(=O)N[C@@H](CCCCN)C(=O)NCC(=O)N[C@@H](CCCNC(=N)N)C(=O)NCC(=O)O)C(C)C)[C@@H](C)CC` [compound 16] gave a Kd on GLP-1 receptor (GLP-1R) of 22.3 ± 0.46 nM.
Same read-out and setting: with `CCCCCCCCNC(=O)C[C@H](NC(=O)[C@@H](NC(=O)[C@H](CC(C)C)NC(=O)[C@H](Cc1c[nH]c2ccccc12)NC(=O)[C@H](C)NC(=O)[C@@H](NC(=O)[C@H](Cc1ccccc1)NC(=O)[C@H](CCC(=O)O)NC(=O)[C@H](CCCCN)NC(=O)[C@H](C)NC(=O)[C@H](C)NC(=O)[C@H](CCC(N)=O)NC(=O)CNC(=O)[C@H](CCC(=O)O)NC(=O)[C@H](CC(C)C)NC(=O)[C@H](Cc1ccc(O)cc1)NC(=O)[C@H](CO)NC(=O)[C@H](CO)NC(=O)[C@@H](NC(=O)[C@H](CC(=O)O)NC(=O)[C@H](CO)NC(=O)[C@@H](NC(=O)[C@H](Cc1ccccc1)NC(=O)[C@@H](NC(=O)CNC(=O)[C@H](CCC(=O)O)NC(=O)[C@H](C)NC(=O)[C@@H](N)Cc1c[nH]cn1)[C@@H](C)O)[C@@H](C)O)C(C)C)[C@@H](C)CC)C(C)C)C(=O)NCC(=O)N[C@@H](CCCNC(=N)N)C(=O)NCC(=O)O` [compound 19] the figure was 19.6 ± 2.14 nM.
The same measure, in the same setting: with `CCCCCCCCCCCCNC(=O)C[C@H](NC(=O)[C@@H](NC(=O)[C@H](CC(C)C)NC(=O)[C@H](Cc1c[nH]c2ccccc12)NC(=O)[C@H](C)NC(=O)[C@@H](NC(=O)[C@H](Cc1ccccc1)NC(=O)[C@H](CCC(=O)O)NC(=O)[C@H](CCCCN)NC(=O)[C@H](C)NC(=O)[C@H](C)NC(=O)[C@H](CCC(N)=O)NC(=O)CNC(=O)[C@H](CCC(=O)O)NC(=O)[C@H](CC(C)C)NC(=O)[C@H](Cc1ccc(O)cc1)NC(=O)[C@H](CO)NC(=O)[C@H](CO)NC(=O)[C@@H](NC(=O)[C@H](CC(=O)O)NC(=O)[C@H](CO)NC(=O)[C@@H](NC(=O)[C@H](Cc1ccccc1)NC(=O)[C@@H](NC(=O)CNC(=O)[C@H](CCC(=O)O)NC(=O)[C@H](C)NC(=O)[C@@H](N)Cc1c[nH]cn1)[C@@H](C)O)[C@@H](C)O)C(C)C)[C@@H](C)CC)C(C)C)C(=O)NCC(=O)N[C@@H](CCCNC(=N)N)C(=O)NCC(=O)O` [compound 20] the figure was 20.1 ± 1.97 nM.

The term Kd denotes the free concentration of one partner at which half of the binding sites on the other are occupied at equilibrium, for simple one-to-one binding.
